Assay results as given in ChEMBL document CHEMBL2375212, “Synthesis and evaluation of novel marine bromopyrrole alkaloid-based hybrids as anticancer agents” (Eur J Med Chem, 2013).
pIC50: −log10 of the molar value. In brackets after ≈: the same amount, converted by molar mass.

Tests used:
[1] = molecular target: Dual specificity mitogen-activated protein kinase kinase 1 (Homo sapiens, UniProt Q02750); assay: Inhibition of MEK1 (unknown origin)
[2] = Cytotoxicity against mouse SVEC cells by MTT assay; assay type: functional, cell-based
PA-1 = assay: Cytotoxicity against human PA1 cells compound treated for 6 hrs measured 48 hrs post washout by MTT assay; assay type: functional, cell-based
Caco-2 = assay: Cytotoxicity against human Caco2 cells compound treated for 6 hrs measured 48 hrs post washout by MTT assay; assay type: functional, cell-based
MCF7 [3] = assay: Cytotoxicity against human MCF7 cells compound treated for 6 hrs measured 48 hrs post washout by MTT assay; assay type: functional, cell-based
[4] = Cytotoxicity against human KB403 cells compound treated for 6 hrs measured 48 hrs post washout by MTT assay; assay type: functional, cell-based
WRL68 = assay: Cytotoxicity against human WRL68 cells compound treated for 6 hrs measured 48 hrs post washout by MTT assay; assay type: functional, cell-based
COLO 205 = assay: Cytotoxicity against human COLO205 cells by MTT assay; assay type: functional, cell-based
P388 = assay: Cytotoxicity against mouse P388 cells by MTT assay; assay type: functional; details: read-out: ED50 (the source's name)
HepG2 = assay: Cytotoxicity against human HepG2 cells by MTT assay; assay type: functional, cell-based
MCF7 [5] = assay: Cytotoxicity against human MCF7 cells by MTT assay; assay type: functional, cell-based

Sequence of Dual specificity mitogen-activated protein kinase kinase 1 (Q02750 whole entry): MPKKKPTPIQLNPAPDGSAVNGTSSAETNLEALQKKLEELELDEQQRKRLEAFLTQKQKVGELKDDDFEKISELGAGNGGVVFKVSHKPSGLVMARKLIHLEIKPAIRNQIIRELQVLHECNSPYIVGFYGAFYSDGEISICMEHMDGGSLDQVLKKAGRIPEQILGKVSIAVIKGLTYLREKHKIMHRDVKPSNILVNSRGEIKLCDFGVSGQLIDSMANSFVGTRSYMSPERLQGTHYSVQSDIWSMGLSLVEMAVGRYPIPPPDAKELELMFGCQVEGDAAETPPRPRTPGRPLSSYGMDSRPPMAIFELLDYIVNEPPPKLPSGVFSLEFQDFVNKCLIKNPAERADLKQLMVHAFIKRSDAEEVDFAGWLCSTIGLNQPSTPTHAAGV

Row | Structure (SMILES) | pIC50 [1] | pIC50 [2] | pIC50 (PA-1) | pIC50 (Caco-2) | pIC50 (MCF7 [3]) | pIC50 [4] | pIC50 (WRL68) | pIC50 (COLO 205) | EC50 (P388) | IC50 (HepG2) | pIC50 (HepG2) | IC50 (MCF7 [5])
1 | Nc1nc(C2CCNC(=O)c3[nH]c(Br)c(Br)c32)c[nH]1 (centres undefined) | 8.22 | – | – | – | – | – | – | – | – | – | – | –
2 | COc1cc(-c2cc(-c3cc(OC)c(OC)c(OC)c3)on2)ccc1O | – | 4.63 | – | – | – | – | – | – | – | – | – | –
3 | Cn1c(/C=C/C(=O)c2ccccc2)cc(Br)c1Br | – | – | ≤ 4.00 | ≤ 4.00 | 4.45 | ≤ 4.00 | ≤ 4.00 | – | – | – | – | –
4 | c1ccc(-c2cc(COc3ccccc3-c3nc4ccccc4s3)on2)cc1 | – | – | – | – | – | – | – | 4.85 | – | – | – | –
5 | Cn1c(-c2cc(-c3ccc[nH]3)no2)cc(Br)c1Br | – | – | ≤ 4.00 | ≤ 4.00 | ≤ 4.00 | 5.51 | ≤ 4.00 | – | – | – | – | –
6 | Cn1c(-c2cc(=O)c3ccccc3o2)cc(Br)c1Br | – | – | 6.22 | ≤ 4.00 | ≤ 4.00 | 6.17 | ≤ 4.00 | – | – | – | – | –
7 | O=C(/C=C/c1cc(Br)c(Br)[nH]1)c1ccccc1 | – | – | ≤ 4.00 | ≤ 4.00 | 4.91 | ≤ 4.00 | ≤ 4.00 | – | – | – | – | –
8 | O=C(/C=C/c1cc(Br)c(Br)[nH]1)c1ccc[nH]1 | – | – | 6.30 | ≤ 4.00 | 7.14 | ≤ 4.00 | ≤ 4.00 | – | – | – | – | –
9 | Cn1c(/C=C/C(=O)c2ccc(Cl)cc2Cl)cc(Br)c1Br | – | – | 6.00 | ≤ 4.00 | 5.74 | ≤ 4.00 | 4.83 | – | – | – | – | –
10 | Cn1c(-c2cc(-c3ccccc3)no2)cc(Br)c1Br | – | – | ≤ 4.00 | 4.78 | ≤ 4.00 | ≤ 4.00 | ≤ 4.00 | – | – | – | – | –
11 | COc1ccc(OC)c(C(=O)/C=C/c2cc(Br)c(Br)[nH]2)c1 | – | – | 6.38 | ≤ 4.00 | 6.66 | ≤ 4.00 | 4.91 | – | – | – | – | –
12 | Cn1c(/C=C/C(=O)c2cccc(O)c2)cc(Br)c1Br | – | – | ≤ 4.00 | ≤ 4.00 | 4.89 | ≤ 4.00 | ≤ 4.00 | – | – | – | – | –
13 | Cn1c(-c2cc(-c3ccccc3O)no2)cc(Br)c1Br | – | – | ≤ 4.00 | ≤ 4.00 | ≤ 4.00 | 5.61 | ≤ 4.00 | – | – | – | – | –
14 | Cn1c(/C=C/C(=O)c2cc(O)ccc2O)cc(Br)c1Br | – | – | 6.42 | ≤ 4.00 | 6.49 | ≤ 4.00 | 6.06 | – | – | – | – | –
15 | Cn1c(/C=C/C(=O)c2ccc[nH]2)cc(Br)c1Br | – | – | 6.14 | ≤ 4.00 | 6.35 | 6.22 | 5.68 | – | – | – | – | –
16 | O=c1cc(-c2cc(Br)c(Br)[nH]2)oc2ccccc12 | – | – | 6.39 | ≤ 4.00 | ≤ 4.00 | 5.89 | ≤ 4.00 | – | – | – | – | –

Row | Structure (SMILES) | pIC50 [1] | pIC50 [2] | pIC50 (PA-1) | pIC50 (Caco-2) | pIC50 (MCF7 [3]) | pIC50 [4] | pIC50 (WRL68) | pIC50 (COLO 205) | EC50 (P388) | IC50 (HepG2) | pIC50 (HepG2) | IC50 (MCF7 [5])
17 | Brc1cc(-c2cc(-c3ccc[nH]3)no2)[nH]c1Br | – | – | ≤ 4.00 | ≤ 4.00 | ≤ 4.00 | 5.32 | ≤ 4.00 | – | – | – | – | –
18 | Cn1c(/C=C/C(=O)c2cccc(N)c2)cc(Br)c1Br | – | – | ≤ 4.00 | ≤ 4.00 | 4.91 | ≤ 4.00 | ≤ 4.00 | – | – | – | – | –
19 | Oc1ccccc1-c1cc(-c2cc(Br)c(Br)[nH]2)on1 | – | – | ≤ 4.00 | ≤ 4.00 | ≤ 4.00 | 4.79 | ≤ 4.00 | – | – | – | – | –
20 | COC(=O)C[C@H]1CNC(=O)c2cc(Br)c(Br)n21 | – | – | – | – | – | – | – | – | 30 µg/mL (≈ 82 µM) | – | – | –
21 | COC(=O)C(NCC(=O)c1cc(Br)c(Br)[nH]1)C(C)C (centres undefined) | – | – | – | – | – | – | – | – | – | 15.3 µg/mL | – | –
22 | CC(=O)O[C@H]1C(=O)[C@@]2(C)[C@H]([C@H](OC(=O)c3ccccc3)[C@]3(O)C[C@H](OC(=O)[C@H](O)[C@@H](NC(=O)c4ccccc4)c4ccccc4)C(C)=C1C3(C)C)[C@]1(OC(C)=O)CO[C@@H]1C[C@@H]2O [PACLITAXEL] | – | – | 8.10 | – | – | 9.00 | – | – | – | – | – | –
23 | O=C(/C=C/c1cc(Br)c(Br)[nH]1)c1ccccc1O | – | – | 6.48 | ≤ 4.00 | 5.83 | ≤ 4.00 | 5.85 | – | – | – | – | –
24 | Cn1c(/C=C/C(=O)c2ccc(O)cc2O)cc(Br)c1Br | – | – | 6.08 | 5.45 | 5.79 | 4.92 | 6.74 | – | – | – | – | –
25 | COc1ccc(C(=O)/C=C/c2cc(Br)c(Br)n2C)c(OC)c1 | – | – | 6.28 | ≤ 4.00 | 7.10 | ≤ 4.00 | 6.19 | – | – | – | – | –
26 | Cn1c(/C=C/C(=O)c2ccc(O)cc2)cc(Br)c1Br | – | – | 5.55 | 5.22 | 5.51 | ≤ 4.00 | 5.72 | – | – | – | – | –
27 | COc1ccc(C(=O)/C=C/c2cc(Br)c(Br)[nH]2)c(OC)c1 | – | – | 6.49 | ≤ 4.00 | 7.52 | ≤ 4.00 | 5.04 | – | – | – | – | –
28 | O=c1cc(C2CCCCC2)oc2ccccc12 | – | – | – | – | – | – | – | – | – | – | 5.54 | –
29 | O=C(/C=C/c1cccc(Cl)c1)c1ccccc1 | – | – | – | – | – | – | – | – | – | – | – | 5.25 µg/mL (≈ 21.6 µM)
30 | COc1ccc(OC)c(C(=O)/C=C/c2cc(Br)c(Br)n2C)c1 | – | – | 6.10 | ≤ 4.00 | 6.19 | ≤ 4.00 | 5.49 | – | – | – | – | –
31 | Cn1c(/C=C/C(=O)c2ccccc2O)cc(Br)c1Br | – | – | 5.90 | 5.50 | 5.60 | 5.08 | 6.48 | – | – | – | – | –
